These results are taken from US20090299049A1, “Bicyclic Compounds and Their Use” (priority 2006, published 2009).

The target of one series is T1, HCV RNA polymerase (Hepatitis C virus genotype 1a, UniProt P27958).
T1 construct: results with HCV and T7 RNA polymerases using 8-phenylethynyl-adenosine triphosphate as a substrate
As to the kind of experiment: In vitro RNA polymerase assay with the ATP analogue as substrate. It is filed as biochemical. From the text:
(§1) In vitro assays of hepatitis C virus (HCV) and bacteriophage T7 RNA polymerases have been performed using adenosine ribonucleotide triphosphate analogues of the present invention as a substrate (in place of natural ATP). Both unincorporated and incorporated fluorescent purine ribonucleotide analogues could be visualised directly under UV trans-illumination in either agarose or polyacrylamide gels without ethidium bromide staining. The RNA products generated in the transcription assay were characterised by 6% or 20% polyacrylamide gel electrophoresis (PAGE) under denaturing (7 M urea) conditions. […] The expected full-length (˜500 bases) RNA products were not observed by denaturing 6% PAGE. Short RNA products were separated by denaturing 20% PAGE. […] The analogues are also incorporated at a slower rate than the natural substrates. Incorporation of the first and second adenosine (underlined adenosine residues in the Table below) into the RNA product occurs with two templates tested, but adjacent adenosine analogues terminate transcription before the third adenosine in each template is incorporated. Two adjacent adenosine analogues may be too large for the active site, thus RNA synthesis is terminated and the product released.

The next series deals with T7 RNA polymerase (Escherichia phage T7, UniProt P00573). As to the kind of experiment: Gel-based in vitro transcription assay with the ATP analogue as substrate. The series is classed as biochemical, bacteriophage T7. The following applies: for Length of RNA products observed: Mg^2+ co-factor, analogue in place of ATP.
From the text: as §1
RNA products formed using the HCV 3′-UTR and T7 φ13 promoter DNA templates in gel-based transcription assays of T7 RNA polymerase and 8-phenylethynyl-adenosine triphosphate: […]

Series [1] in a line: Optical properties: UV-visible spectra, fluorescence excitation and emission. Conditions: for Stokes shift: (1/λex − 1 λem); for λem: fluorescence emission wavelength; for λex: fluorescence excitation wavelength. The series is classed as physicochemical. From the text: The optical properties of several novel chromophores were investigated. UV-visible spectra reveal an intense absorption in the UV region for all the compounds evaluated.

The nature of series [2]: UV absorbance and fluorescence of ribonucleoside analogues in DMSO (molar extinction coefficient, quantum yield). It is filed as physicochemical. Conditions: for Quantum yield: relative to quinine sulphate and anthracene standards. The source says: UV absorbance and fluorescence excitation and emission data were used to determine the molar extinction coefficient and fluorescence quantum yield of a several adenosine and guanosine ribonucleoside analogues in DMSO (see the Table below). The data acquired support the concept that the fluorescence properties of these analogues can be tuned by altering the electron-donating or electron-withdrawing R-group on the terminal phenylalkyne. Fourteen electron-donating or electron-withdrawing R-groups were coupled to purine bases at the 8-position. […] This makes the analogues extremely useful for the quantification of analogue-containing nucleic acid products in a DNA or RNA background. […] The position (ortho, meta or para) of the R-group on the phenyl ring can also be used to tune the fluorescent properties of the analogues. The ring position of the R-group has a smaller effect on the fluorescent properties of the analogues. Greater changes in the excitation/emission wavelength, molar extinction coefficient and quantum yield can be induced by changing the type of R-group (electron-donating vs. electron-withdrawing) as compared to the position of a R-group on the phenyl ring (ortho, meta or para). The quantum yields of the unphosphorylated analogues were measured relative to quinine sulphate and anthracene standards. […] This provides additional support for the idea that the purine bases can both push and pull electrons in π-conjugated systems.

Setting [3] is: Mg^2+ as co-factor, depending on DNA template.

Broadly, the melting point is the temperature of the solid-liquid transition.

T7 RNA polymerase, sequence (P00573 whole entry): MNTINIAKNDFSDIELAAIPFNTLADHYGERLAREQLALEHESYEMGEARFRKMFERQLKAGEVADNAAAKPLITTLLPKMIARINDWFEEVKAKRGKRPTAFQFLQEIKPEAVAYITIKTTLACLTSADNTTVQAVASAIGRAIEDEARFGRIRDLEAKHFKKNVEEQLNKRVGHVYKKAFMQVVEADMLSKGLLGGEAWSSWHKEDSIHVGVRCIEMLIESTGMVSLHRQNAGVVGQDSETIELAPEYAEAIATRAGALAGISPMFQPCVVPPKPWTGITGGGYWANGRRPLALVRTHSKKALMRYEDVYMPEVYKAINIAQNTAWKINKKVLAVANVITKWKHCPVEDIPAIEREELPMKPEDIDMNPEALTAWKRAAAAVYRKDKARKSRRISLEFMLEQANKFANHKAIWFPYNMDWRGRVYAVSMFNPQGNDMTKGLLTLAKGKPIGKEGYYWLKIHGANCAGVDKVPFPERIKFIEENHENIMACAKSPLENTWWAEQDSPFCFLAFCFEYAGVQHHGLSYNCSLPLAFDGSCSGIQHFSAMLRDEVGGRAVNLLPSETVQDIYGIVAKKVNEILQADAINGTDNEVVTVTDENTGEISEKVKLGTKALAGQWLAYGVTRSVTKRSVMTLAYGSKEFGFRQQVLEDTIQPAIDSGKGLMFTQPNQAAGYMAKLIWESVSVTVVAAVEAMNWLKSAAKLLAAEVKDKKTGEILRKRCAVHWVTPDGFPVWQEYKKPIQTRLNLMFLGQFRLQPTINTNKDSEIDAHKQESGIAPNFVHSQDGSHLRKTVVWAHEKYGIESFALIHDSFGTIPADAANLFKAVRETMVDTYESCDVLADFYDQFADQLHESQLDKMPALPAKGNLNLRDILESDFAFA
T1 sequence (P27958 2421-3011): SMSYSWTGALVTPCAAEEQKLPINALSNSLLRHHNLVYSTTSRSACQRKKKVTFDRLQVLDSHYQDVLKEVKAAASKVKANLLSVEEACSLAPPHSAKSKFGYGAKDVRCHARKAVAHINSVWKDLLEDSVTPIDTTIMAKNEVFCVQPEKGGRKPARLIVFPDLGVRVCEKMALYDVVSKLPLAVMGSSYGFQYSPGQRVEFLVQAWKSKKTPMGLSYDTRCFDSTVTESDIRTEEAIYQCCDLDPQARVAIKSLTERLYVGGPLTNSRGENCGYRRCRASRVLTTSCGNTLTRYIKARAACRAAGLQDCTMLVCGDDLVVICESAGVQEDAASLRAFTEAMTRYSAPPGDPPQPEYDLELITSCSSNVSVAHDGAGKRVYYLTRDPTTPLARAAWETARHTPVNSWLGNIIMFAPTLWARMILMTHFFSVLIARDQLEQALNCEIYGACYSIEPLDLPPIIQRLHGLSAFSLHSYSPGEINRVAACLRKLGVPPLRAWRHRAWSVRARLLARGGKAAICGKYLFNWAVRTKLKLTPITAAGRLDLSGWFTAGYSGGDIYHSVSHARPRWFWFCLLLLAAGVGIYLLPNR

Regarding `Nc1ncnc2c1nc(C#Cc1ccccc1)n2[C@@H]1O[C@H](COP(=O)(O)OP(=O)(O)OP(=O)(O)O)[C@@H](O)[C@H]1O` [8-phenylethynyl-adenosine triphosphate], the “RNA transcripts yielded with analogue as substrate” value on HCV RNA polymerase (setting [3]) and on T7 RNA polymerase (setting [3]) was “short RNA transcripts” throughout. Besides, the “Expected full-length (˜500 bases) RNA products” value on HCV RNA polymerase (denaturing 6% PAGE) and on T7 RNA polymerase (denaturing 6% PAGE) was “not observed” throughout. Further, the “Length of RNA products observed” value on T7 RNA polymerase (HCV 3′-UTR DNA template) is reported as 6 mer, 9 mer; at T7 RNA polymerase (T7 φ13 promoter DNA template), 4 mer, 6 mer. The “Length of small RNA products into which the analogue is incorporated” value at T7 RNA polymerase (denaturing 20% PAGE) was 4-9 bases.

For the molecule `Nc1nc2c(nc(C#Cc3ccccc3)n2[C@@H]2O[C@H](CO)[C@@H](O)[C@H]2O)c(=O)[nH]1` [Compound 5a, 8-(Phenylethynyl)guanosine], the melting point is 234 to 236 °C (dec.). Moreover, in series [1], the Stokes shift amounted to 4196 cm⁻¹, the λem came out at 438 nm and the λex is on record as 370 nm. In series [2], the “Wavelength at fluorescence emission maximum” value is recorded as 416 nm, the “Wavelength at maximum in UV absorption” value stood at 330 nm and the Quantum yield came out at 2.7%.

With `Cc1ccc(C#Cc2nc3c(=O)[nH]c(N)nc3n2[C@@H]2O[C@H](CO)[C@@H](O)[C@H]2O)cc1` [Compound 5b, 8-(4′-Methylphenylethynyl)guanosine], the melting point was 222 to 226 °C (dec.). In addition, in series [1], the Stokes shift was determined as 3452 cm⁻¹, the λem amounted to 415 nm and the λex came out at 363 nm. In series [2], the Molar absorption coefficient stood at 16591 M⁻¹ cm⁻¹, the “Wavelength at fluorescence emission maximum” value came out at 409 nm, the “Wavelength at maximum in UV absorption” value came to 331 nm and the Quantum yield worked out at 3.1%.

Regarding `COc1ccc(C#Cc2nc3c(=O)[nH]c(N)nc3n2[C@@H]2O[C@H](CO)[C@@H](O)[C@H]2O)cc1` [Compound 5c, 8-(4-Methoxyphenylethynyl)guanosine], the melting point is 220 to 224 °C (dec.). For the same molecule, in series [1], the “UV-visible spectrum shift relative to compound 5a (parent)” value was “red-shifted”, the Stokes shift was found to be 2749 cm⁻¹, the λem is listed as 402 nm and the λex turned out to be 362 nm. Moreover, the “HOMO-LUMO gap relative to compound 5a” value in series [1] (inferred from UV-visible spectrum) is on record as “smaller HOMO-LUMO gap”. Besides, in series [2], the Molar absorption coefficient worked out at 22569 M⁻¹ cm⁻¹, the “Wavelength at fluorescence emission maximum” value is listed as 398 nm, the “Wavelength at maximum in UV absorption” value was 330 nm and the Quantum yield was determined as 1.2%.

For the molecule `CSc1ccc(C#Cc2nc3c(=O)[nH]c(N)nc3n2[C@@H]2O[C@H](CO)[C@@H](O)[C@H]2O)cc1` [Compound 5d, 8-(4-Methylsulfanylphenylethynyl)guanosine], the melting point was 214 to 216 °C (dec.). Besides, in series [1], the Stokes shift is 3264 cm⁻¹, the λem is 426 nm and the λex was 374 nm. For the same molecule, in series [2], the Molar absorption coefficient was 19832 M⁻¹ cm⁻¹, the “Wavelength at fluorescence emission maximum” value was 425 nm, the “Wavelength at maximum in UV absorption” value is given as 343 nm and the Quantum yield is recorded as 4.5%.

`Nc1nc2c(nc(C#Cc3ccc(C(F)(F)F)cc3)n2[C@@H]2O[C@H](CO)[C@@H](O)[C@H]2O)c(=O)[nH]1` [Compound 5g, 8-(4′-Trifluoromethylphenylethynyl)guanosine]: the melting point is more than 240 °C. In addition, in series [1], the Stokes shift is 4539 cm⁻¹, the λem came out at 468 nm and the λex turned out to be 386 nm. Besides, in series [2], the “Wavelength at fluorescence emission maximum” value is on record as 458 nm, the “Wavelength at maximum in UV absorption” value is recorded as 348 nm and the Quantum yield is 0.74%.

In the case of `Nc1ncnc2c1nc(C#Cc1ccccc1)n2[C@@H]1O[C@H](CO)[C@@H](O)[C@H]1O` [Compound 6a, 8-(Phenylethynyl)adenosine], the melting point is 168 to 170 °C (dec.). Moreover, in series [1], the Stokes shift was 3383 cm⁻¹, the λem is given as 397 nm and the λex is given as 350 nm. Further, in series [2], the “Wavelength at fluorescence emission maximum” value is given as 398 nm, the “Wavelength at maximum in UV absorption” value is on record as 322 nm and the Quantum yield worked out at 49%.

Regarding `Cc1ccc(C#Cc2nc3c(N)ncnc3n2[C@@H]2O[C@H](CO)[C@@H](O)[C@H]2O)cc1` [Compound 6b, 8-(4′-Methylphenylethynyl)adenosine], the melting point is 196 to 198 °C (dec.). Further, in series [1], the Stokes shift is 3126 cm⁻¹, the λem is listed as 393 nm and the λex came out at 350 nm. In series [2], the Molar absorption coefficient was 18772 M⁻¹ cm⁻¹, the “Wavelength at fluorescence emission maximum” value is given as 393 nm, the “Wavelength at maximum in UV absorption” value is reported as 323 nm and the Quantum yield stood at 54%.

For the molecule `COc1ccc(C#Cc2nc3c(N)ncnc3n2[C@@H]2O[C@H](CO)[C@@H](O)[C@H]2O)cc1` [Compound 6c, 8-(4-methoxyphenylethynyl)-adenosine], the melting point is 198 to 202 °C (dec.). Besides, in series [1], the Stokes shift stood at 1933 cm⁻¹, the λem was found to be 380 nm and the λex is recorded as 354 nm. Moreover, the “Absorption maxima shift relative to compound 7a (parent)” value in series [1] (compared with the guanosine series) is on record as “more significant differences”. In addition, in series [2], the Molar absorption coefficient was 18176 M⁻¹ cm⁻¹, the “Wavelength at fluorescence emission maximum” value is listed as 380 nm, the “Wavelength at maximum in UV absorption” value was determined as 326 nm and the Quantum yield stood at 24%.

Regarding `CSc1ccc(C#Cc2nc3c(N)ncnc3n2[C@@H]2O[C@H](CO)[C@@H](O)[C@H]2O)cc1` [Compound 6d, 8-(4-Methylsulfanylphenylethynyl)adenosine], the melting point is 184 to 188 °C (dec.). Also, in series [1], the Stokes shift was determined as 1921 cm⁻¹, the λem is listed as 396 nm and the λex is on record as 368 nm. Besides, in series [2], the Molar absorption coefficient is 26019 M⁻¹ cm⁻¹, the “Wavelength at maximum in UV absorption” value is on record as 338 nm and the Quantum yield is on record as 67%.

As to `Nc1ncnc2c1nc(C#Cc1ccc(C(F)(F)F)cc1)n2[C@@H]1O[C@H](CO)[C@@H](O)[C@H]1O` [Compound 6g, 8-(4′-Trifluoromethylphenylethynyl)adenosine], the melting point was 196 to 198 °C (dec.). In series [1], the Stokes shift was 4897 cm⁻¹, the λem is 440 nm and the λex was determined as 362 nm. Further, in series [2], the “Wavelength at fluorescence emission maximum” value came to 436 nm, the “Wavelength at maximum in UV absorption” value stood at 333 nm and the Quantum yield was found to be 8.8%.
